Laboratory results published in the CheMixHub viscosity set.

Experiment: xn = mol fraction of the nth substance listed

CCCCn1cc[n+](C)c1.F[P-](F)(F)(F)(F)F + CO
Settings	viscosity [mPa·s]
298.15 K, 101 kPa, x1 = 0.7082	45.95

CCc1ccccc1 + CO
viscosity [mPa·s], 101 kPa
Settings	x2 = 0.1406	x2 = 0.3326	x2 = 0.5278	x2 = 0.6721	x2 = 0.7828	x2 = 0.8113	x2 = 0.8848
298.15 K	0.6135	0.6134	0.6258	0.6323	0.6247	0.618	0.5991
308.15 K	0.5262	0.5283	0.5395	0.5368	0.525	0.5202	0.5052

COC(C)(C)C + CO
298.15 K
Settings	viscosity [mPa·s]
101 kPa, x1 = 0.0512	0.547
101 kPa, x1 = 0.0994	0.536
101 kPa, x1 = 0.1991	0.488
101 kPa, x1 = 0.3011	0.455
101 kPa, x1 = 0.4015	0.436
101 kPa, x1 = 0.4993	0.42
101 kPa, x1 = 0.6001	0.402
101 kPa, x1 = 0.7001	0.387
101 kPa, x1 = 0.8007	0.376
101 kPa, x1 = 0.8998	0.366
101 kPa, x1 = 0.9494	0.36
101.33 kPa, x1 = 0.0048	0.549
101.33 kPa, x1 = 0.0234	0.547
101.33 kPa, x1 = 0.0483	0.544
101.33 kPa, x1 = 0.0818	0.535
101.33 kPa, x1 = 0.1136	0.526
101.33 kPa, x1 = 0.1601	0.51
101.33 kPa, x1 = 0.1987	0.496
101.33 kPa, x1 = 0.2377	0.483
101.33 kPa, x1 = 0.2656	0.475
101.33 kPa, x1 = 0.3162	0.462
101.33 kPa, x1 = 0.3736	0.446
101.33 kPa, x1 = 0.4299	0.433
101.33 kPa, x1 = 0.481	0.42
101.33 kPa, x1 = 0.5141	0.413
101.33 kPa, x1 = 0.5796	0.399
101.33 kPa, x1 = 0.6163	0.394
101.33 kPa, x1 = 0.7002	0.382
101.33 kPa, x1 = 0.7768	0.37
101.33 kPa, x1 = 0.8313	0.363
101.33 kPa, x1 = 0.898	0.356
101.33 kPa, x1 = 0.9429	0.346

COCCOCCOCCOCCOC + CO
viscosity [mPa·s], 100 kPa
Settings	293.15 K	298.15 K	303.15 K
x2 = 0.0463	3.726	3.3	2.916
x2 = 0.1031	3.616	3.209	2.845
x2 = 0.1978	3.408	3.036	2.691
x2 = 0.3111	3.132	2.803	2.493
x2 = 0.3886	2.919	2.611	2.334
x2 = 0.494	2.592	2.326	2.089
x2 = 0.5935	2.25	2.031	1.829
x2 = 0.6966	1.868	1.696	1.537
x2 = 0.7966	1.467	1.344	1.225
x2 = 0.8472	1.243	1.145	1.047
x2 = 0.8972	1.024	0.948	0.871
x2 = 0.9495	0.803	0.744	0.683

Clc1cccc2ccccc12 + CO
viscosity [mPa·s], 101.33 kPa
Settings	x1 = 0.0998	x1 = 0.1992	x1 = 0.302	x1 = 0.4003	x1 = 0.4961	x1 = 0.5978	x1 = 0.6961	x1 = 0.801	x1 = 0.8922
298.15 K	0.814	1.096	1.372	1.617	1.847	2.064	2.237	2.454	2.67
303.15 K	0.75	1.002	1.249	1.468	1.672	1.863	2.012	2.197	2.385
308.15 K	0.689	0.918	1.142	1.336	1.516	1.683	1.818	1.984	2.157

COCCOCCOCCOCCOC + COC(=O)OC
298.15 K, 101.33 kPa
Settings	viscosity [mPa·s]
x1 = 0.0013	0.595
x1 = 0.0051	0.603
x1 = 0.0117	0.623
x1 = 0.0228	0.642
x1 = 0.0349	0.673
x1 = 0.0584	0.726
x1 = 0.0861	0.792
x1 = 0.1164	0.875
x1 = 0.1595	0.994
x1 = 0.2094	1.132
x1 = 0.3042	1.414
x1 = 0.3316	1.499
x1 = 0.3593	1.576
x1 = 0.3994	1.703
x1 = 0.4379	1.815
x1 = 0.477	1.945
x1 = 0.5477	2.159
x1 = 0.6174	2.382
x1 = 0.6892	2.606
x1 = 0.7492	2.781
x1 = 0.7839	2.888
x1 = 0.8643	3.113
x1 = 0.9142	3.237
x1 = 0.949	3.324
x1 = 0.9732	3.369

Clc1ccccc1 + COC(=O)OC
Settings	viscosity [mPa·s]
298.15 K, 101 kPa, x2 = 0.238	0.7093

CCCC(C)C + COC(C)(C)C
298.15 K, 101.33 kPa
Settings	viscosity [mPa·s]
x2 = 0.0969	0.2794
x2 = 0.2016	0.2825
x2 = 0.3021	0.2858
x2 = 0.4006	0.2902
x2 = 0.5007	0.2956
x2 = 0.5985	0.3014
x2 = 0.6965	0.3079
x2 = 0.7978	0.3154
x2 = 0.8845	0.3228

Clc1ccccc1 + COC(C)(C)C
viscosity [mPa·s], 101.33 kPa
Settings	x2 = 0.0948	x2 = 0.1898	x2 = 0.2929	x2 = 0.3832	x2 = 0.4974	x2 = 0.6209	x2 = 0.7014	x2 = 0.8089	x2 = 0.9102
293.15 K	0.7752	0.7379	0.6754	0.6443	0.5825	0.5368	0.4905	0.456	0.4191
298.15 K	0.7335	0.6981	0.6506	0.6036	0.5697	0.5019	0.4658	0.4246	0.3945

COCCOCCOCCOCCOC + COC(C)=O
viscosity [mPa·s], 101 kPa
Settings	298.15 K	308.15 K	318.15 K
x1 = 0.0089	0.382	0.344	0.325
x1 = 0.0206	0.404	0.364	0.339
x1 = 0.0384	0.439	0.392	0.365
x1 = 0.0758	0.519	0.459	0.42
x1 = 0.1174	0.61	0.539	0.484
x1 = 0.1646	0.729	0.63	0.56
x1 = 0.231	–	0.773	0.677
x1 = 0.2993	1.096	0.924	0.749
x1 = 0.3846	1.349	1.11	0.947
x1 = 0.453	1.581	1.294	1.09
x1 = 0.5398	1.854	1.503	1.254
x1 = 0.6662	2.272	1.832	1.504
x1 = 0.719	2.475	1.961	1.624
x1 = 0.7865	2.669	2.143	1.751
x1 = 0.8413	2.902	2.278	1.858
x1 = 0.8673	2.957	2.358	1.919
x1 = 0.8983	3.08	2.43	1.956
x1 = 0.9205	3.127	2.478	1.991
x1 = 0.9565	3.266	2.547	2.058

Clc1ccccc1 + COC(C)=O
viscosity [mPa·s], 101 kPa
Settings	298.15 K	308.15 K
x2 = 0.0395	0.734	0.662
x2 = 0.1406	0.685	0.619
x2 = 0.2347	0.642	0.581
x2 = 0.3286	0.602	0.547
x2 = 0.4168	0.566	0.516
x2 = 0.4647	0.548	0.5
x2 = 0.5282	0.525	0.479
x2 = 0.6291	0.491	0.448
x2 = 0.7341	0.458	0.418
x2 = 0.8394	0.427	0.39
x2 = 0.9331	0.401	0.367

CCc1ccccc1 + COCCO
viscosity [mPa·s], 101 kPa
Settings	298.15 K	308.15 K
x2 = 0.0558	0.65	0.548
x2 = 0.1525	0.679	0.577
x2 = 0.2511	0.717	0.612
x2 = 0.3504	0.766	0.655
x2 = 0.4525	0.831	0.708
x2 = 0.5021	0.869	0.738
x2 = 0.5522	0.911	0.771
x2 = 0.6499	1.008	0.844
x2 = 0.75	1.131	0.933
x2 = 0.853	1.291	1.043
x2 = 0.9546	1.488	1.175

Clc1ccccc1 + COCCO
303.15 K, 101.33 kPa
Settings	viscosity [mPa·s]
x2 = 0.1075	0.749
x2 = 0.2093	0.782
x2 = 0.3086	0.836
x2 = 0.4113	0.894
x2 = 0.4993	0.952
x2 = 0.6006	1.028
x2 = 0.7032	1.113
x2 = 0.8023	1.201
x2 = 0.9234	1.309

CCCCC(CC)CN (centres undefined) + COCCOCCOC
viscosity [mPa·s], 101.33 kPa
Settings	x2 = 0.0967	x2 = 0.194	x2 = 0.292	x2 = 0.391	x2 = 0.491	x2 = 0.591	x2 = 0.692	x2 = 0.794	x2 = 0.897
303.2 K	0.98	0.97	0.96	0.95	0.94	0.93	0.92	0.93	0.94
313.2 K	0.86	0.85	0.84	0.82	0.81	0.8	0.79	0.8	0.81

CCCCC(CC)CN (centres undefined) + COCCOCCOCCOC
viscosity [mPa·s], 101.33 kPa
Settings	x2 = 0.0746	x2 = 0.153	x2 = 0.237	x2 = 0.326	x2 = 0.42	x2 = 0.521	x2 = 0.629	x2 = 0.744	x2 = 0.867
303.2 K	1.02	1.05	1.13	1.19	1.25	1.32	1.39	1.54	1.64
313.2 K	0.88	0.9	0.97	1.01	1.06	1.11	1.16	1.31	1.39

CCCCC(CC)CN (centres undefined) + COCCOCCOCCOCCOC
viscosity [mPa·s], 101.33 kPa
Settings	x2 = 0.0607	x2 = 0.127	x2 = 0.199	x2 = 0.279	x2 = 0.368	x2 = 0.466	x2 = 0.576	x2 = 0.699	x2 = 0.84
303.2 K	1.04	1.14	1.26	1.39	1.58	1.74	1.99	2.24	2.55
313.2 K	0.89	0.97	1.07	1.16	1.3	1.43	1.59	1.87	2.09

COCOCOCOCOC + COCOCOC
100 kPa
Settings	viscosity [mPa·s]
298.15 K, x2 = 0.65	1.125
303.15 K, x2 = 0.12	1.575

COCOCOCOCOC + COCOCOCOC
Settings	viscosity [mPa·s]
293.15 K, 100 kPa, x2 = 0.12	1.895
